Laboratory results reported in patent US20240228507A1, “GREEN SOLVENTS FOR CHEMICAL REACTIONS” (ECOLE POLYTECHNIQUE FÉDÉRALE DE LAUSANNE (EPFL), priority 2021, published 2024).

Tests used:
Format in all cases: physicochemical
[1] = Miscibility with different solvents; parameters: key: “*” indicating—not miscible; settings: Table 1d; blank cell = miscible
[2] = Stability under hydrogenation conditions
Procedure: It is important to note that, DFX was stable under hydrogenation conditions (40 bar of H2, 70° C., 24 h), thus it can be used in reactions requiring high pressure of H2, elevated temperature, and/or long reaction time, which is a very desirable property for biomass-derived solvents.
40 bar of H2, 70° C., 24 h • 2. 40 bar of H2, 250° C., 3 h

[3] = Stability of DFX under basic conditions (GC-FID/GC-MS, colour change); parameters: key to Reaction (Y/N): *Reaction (Y/N) means color change compared to blank solution.; *Reaction (Y/N) means color change compared to blank solution
Procedure: To assess DFX stability under basic conditions, we tested a series of organic and inorganic bases at 80° C. and 110° C. for maximum 48 h (Table 6). Visual color change compared to a blank solution of pure DFX indicated some reactions were occurring. After 0.5 h, 24 h, 48 h of exposure, the samples were injected in GC-FID and GC-MS and the area of DFX was compared with the one in blank sample using decane as the internal standard. As a result of this experiment, we identified some potential limitations of this emerging solvent. Specifically, inorganic bases such as K2CO3, NaOH, CsCO3 led to the highest extent of degradation (maximum 21% after 48 h). Triethylamine (NEt3) caused less than 5% of degradation, but led to the formation of dark solution as well as K2CO3, NaOH, CsCO3. Probably, impurities existing in DFX (95% pure) also contribute to a color change as they could interact with bases.

[4] = Stability under acidic conditions; settings: 0.8M HCl
[5] = Kamlet-Abboud-Taft solvatochromic parameters (dye absorption spectra); settings: Table 1a
Source text: Determination of the Kamlet-Abboud-Taft parameters was based on the absorption spectrum of two dyes (N,N-diethyl-4-nitroaniline and 4-nitroaniline) in different solvents, that allow calculating corresponding values using known procedures (P. G. Jessop, D. A. Jessop, D. Fu and L. Phan, Green Chem., 2012, 14, 1245-1259).

[6] = CsCO3 (base cell blank, row r16), 80° C., 0.5 h
[7] = CsCO3 (base cell blank, row r16), 80° C., 24 h
[8] = CsCO3 (base cell blank, row r16), 80° C., 48 h
[9] = CsCO3 (base cell blank, row r17), 110° C., 0.5 h
[10] = CsCO3 (base cell blank, row r17), 110° C., 24 h
[11] = CsCO3 (base cell blank, row r17), 110° C., 48 h
[12] = CsCO3, 110° C. (row r15), 0.5 h

C1OC[C@H]2O[C@@H]3OCO[C@@H]3[C@H]2O1 [DFX, Diformylxylose]
13%: DFX degradation ([3]; K2CO3, 110° C., 48 h)
remained stable: stability under hydrogenation conditions ([2]; 40 bar of H2, 70° C., 24 h) | stability under hydrogenation conditions ([2]; 40 bar of H2, 250° C., 3 h)
7%: DFX degradation [3, 10] | DFX degradation ([3]; K2CO3, 80° C., 48 h)
3%: DFX degradation [3, 12] | DFX degradation ([3]; K2CO3, 80° C., 24 h) | DFX degradation ([3]; KOAc, 80° C., 48 h) | DFX degradation ([3]; KOAc, 110° C., 24 h) | DFX degradation ([3]; NEt3, 80° C., 0.5 h) | DFX degradation ([3]; Pyridine, 110° C., 24 h)
2%: DFX degradation ([3]; K2CO3, 80° C., 0.5 h) | DFX degradation ([3]; K2CO3, 110° C., 0.5 h) | DFX degradation ([3]; KOAc, 80° C., 24 h)
0.92: Kamlet-Taft Parameters Π* [5]
N: Reaction (Y/N) ([3]; KOAc, 80° C., 0.5 h) | Reaction (Y/N) ([3]; KOAc, 80° C., 24 h) | Reaction (Y/N) ([3]; KOAc, 80° C., 48 h) | Reaction (Y/N) ([3]; Pyridine, 80° C., 0.5 h) | Reaction (Y/N) ([3]; Pyridine, 80° C., 24 h) | Reaction (Y/N) ([3]; Pyridine, 80° C., 48 h) | Reaction (Y/N) ([3]; Pyridine, 110° C., 0.5 h)
*: Miscibility with Cyclohexane [1] | Miscibility with Hexane [1] | Miscibility with di-n-butyl ether [1]
0%: DFX degradation ([3]; KOAc, 80° C., 0.5 h) | DFX degradation ([3]; NaOH, 80° C., 0.5 h) | DFX degradation ([3]; Pyridine, 80° C., 0.5 h) | DFX degradation ([3]; Pyridine, 80° C., 24 h) | DFX degradation ([3]; Pyridine, 80° C., 48 h) | DFX degradation ([3]; Pyridine, 110° C., 0.5 h)
less than 5%: DFX degradation ([3]; Triethylamine (NEt3))
5%: DFX degradation ([3]; K2CO3, 110° C., 24 h) | DFX degradation ([3]; KOAc, 110° C., 48 h) | DFX degradation ([3]; NEt3, 80° C., 48 h)
6%: DFX degradation ([3]; Pyridine, 110° C., 48 h)
11%: DFX degradation [3, 11] | DFX degradation ([3]; CsCO3, 110° C. (row r15), 24 h)
more than 80%: DFX recovered ([4]; 70 to 95° C., no formaldehyde)
Y: Reaction (Y/N) [3, 6] | Reaction (Y/N) [3, 7] | Reaction (Y/N) [3, 8] | Reaction (Y/N) [3, 9] | Reaction (Y/N) [3, 10] | Reaction (Y/N) [3, 11] | Reaction (Y/N) [3, 12] | Reaction (Y/N) ([3]; CsCO3, 110° C. (row r15), 24 h) | Reaction (Y/N) ([3]; CsCO3, 110° C. (row r15), 48 h) | Reaction (Y/N) ([3]; K2CO3, 80° C., 0.5 h) | Reaction (Y/N) ([3]; K2CO3, 80° C., 24 h) | Reaction (Y/N) ([3]; K2CO3, 80° C., 48 h) | Reaction (Y/N) ([3]; K2CO3, 110° C., 0.5 h) | Reaction (Y/N) ([3]; K2CO3, 110° C., 24 h) | Reaction (Y/N) ([3]; K2CO3, 110° C., 48 h) | Reaction (Y/N) ([3]; KOAc, 110° C., 0.5 h) | Reaction (Y/N) ([3]; KOAc, 110° C., 24 h) | Reaction (Y/N) ([3]; KOAc, 110° C., 48 h) | Reaction (Y/N) ([3]; NEt3, 80° C., 0.5 h) | Reaction (Y/N) ([3]; NEt3, 80° C., 24 h) | Reaction (Y/N) ([3]; NEt3, 80° C., 48 h) | Reaction (Y/N) ([3]; NaOH, 80° C., 0.5 h) | Reaction (Y/N) ([3]; NaOH, 80° C., 24 h) | Reaction (Y/N) ([3]; NaOH, 80° C., 48 h) | Reaction (Y/N) ([3]; Pyridine, 110° C., 24 h) | Reaction (Y/N) ([3]; Pyridine, 110° C., 48 h)
17%: DFX degradation ([3]; NaOH, 80° C., 48 h)
1%: DFX degradation [3, 6] | DFX degradation [3, 9] | DFX degradation ([3]; KOAc, 110° C., 0.5 h)
≤ 21%: DFX degradation, highest extent ([3]; inorganic bases K2CO3, NaOH, CsCO3, after 48 h)
21%: DFX degradation ([3]; CsCO3, 110° C. (row r15), 48 h)
9%: DFX degradation ([3]; NaOH, 80° C., 24 h)
8%: DFX degradation [3, 8]
around 90%: DFX stable ([4]; formaldehyde added)
4%: DFX degradation [3, 7] | DFX degradation ([3]; NEt3, 80° C., 24 h)
